According to patent publication US11466020B2, “Compounds and compositions for inhibition and elimination of Zika infection and uses for same” (Cornell University, priority 2017, dated 2022):
“Also recorded” adds a separate entry of the source. Counter-ions that a name gives are not always drawn.

Tests used:
[1] = test system: ZIKV (MR766 strain); test: ZIKV infection of human forebrain organoids (MR766); assay type: cell-based, Zika virus
Method: (A) Experimental design for evaluating the therapeutic efficacy and safety of HH using forebrain organoids. D20 or D40 Forebrain organoids were exposed to ZIKV (5×10^5 PFU/ml) or mock-treated for 24 h. After removal of ZIKV-containing medium, fresh virus-free medium plus compounds were added. Organoids were analyzed at day 4 (D20+4) or day 18 (D20+18) after initial ZIKV infection. (B and C) HH eliminates ZIKV infection in short-term cultures. Immunocytochemistry analysis (B) and the quantification of infection rate (C) of mock, DMSO or 25 μM HH treated ZIKV-infected D20 organoids (n=3). Scale bars, 100 μm. D20+4 organoids mainly consist of SOX2^+ progenitors and are highly infiltrated by ZIKV. […] (D) qRT-PCR analysis of total ZIKV vRNA in the supernatant of DMSO or 25 μM HH treated ZIKV-infected D20 and D40 organoids (n=3). (E) HH rescues ZIKV-related proliferation and apoptosis defects in D20+4 organoids. The number of proliferating cells (Ki67^+) is decreased and the number of apoptotic cells (CAS^+) is increased in ZIKV-infected organoids compared to mock and 25 μM HH treated organoids (n=3). Scale bars, 100 μm. […] Scale bars, 50 μm. […] Quantifications show average organoid perimeter of D20+18 organoids (H). Values represent mean±SEM (n=3). Scale bars, 1 mm. (I) HH rescues ZIKV-induced structural defects in forebrain organoids. Mock treated organoids contain clearly defined progenitor (SOX2) and neuronal (TUJ1) zones. Neurons migrate out of progenitor zones and settle at the edge of the organoid, while progenitor zones occupy more interior regions of the organoid. In contrast, D20+18 ZIVK infected organoids lack clearly defined progenitor and neuronal zones, which appear to intermix. Both neuron and progenitor zones appear to settle at the edge of the organoid. HH rescues the well-delineated structure of forebrain organoids (n=3). Scale bars, 100 μm. p values were calculated by unpaired two-tailed Student's t-test. *p<0.05, **p<0.01 and ***p<0.001.
D20 forebrain organoids were inoculated with ZIKV (MR766 strain) for 24 h, followed by treatment with 15 μM AQ or 25 μM HH for 3 days (D20+4, short-term) or 17 days (D20+18, long-term). Organoids were analyzed for ZIKV infection, cell proliferation, and apoptosis (FIG. 3A).
Generation and culture of human forebrain organoids. To induce forebrain organoid differentiation, H9 hESC line (WA-09, WiCell) hPSCs were dissociated to single cells using EDTA, and 9000 cells were reaggregated using low-adhesion V-bottom 96 well plates (Wako) in Essential8 Medium (Fisher Scientific) with 10 μM Y-27632 (Tocris Biosciences). After 24 h (day 0), medium was changed to Essential6 (Fischer Scientific) supplemented with 10 μM SB431542 (Tocris Biosciences), 500 nM LDN193189 (Stem Cell Technologies), and 2 μM XAV939 (Tocris Biosciences) until day 4. […]

[2] = test system: ZIKV (PRVABC59 strain); test: ZIKV PRVABC59 infection of hNPCs (immunocytochemistry); assay type: cell-based, Zika virus; conditions: MOI=0.125, 72 h
Method: (A) Scheme of high content chemical screen. (B) Chemical structure of hit compounds. (C) Inhibitory curve and IC50 of HH or AQ on hNPCs (n=6). (D-H) Immunocytochemistry analysis (D), the quantification of the infection rate (E), the quantification of proliferation rate (F), the quantification of cell apoptosis rate (G) and the normalized cell viability (H) of hNPCs at 72 h after ZIKV (MR 766 strain) infection with or without drug treatment. Scale bars, 100 μm. The ZIKV infection rate is defined as the percentage of ZIKV E^+ cells. The proliferation rate is defined as the percentages of Ki67^+ cells. The cell apoptosis rate was defined as the percentage of cleaved-Caspase 3/CAS3^+ cells. The normalized cell viability was calculated by dividing the total cell number of each condition by the total cell number under mock infection conditions. (n=6). […] (K) Quantification of ZIKV infectious particles produced by ZIKV-infected hNPCs with or without compound treatment by the Vero cell reinfection assay. […] (M and N) Immunocytochemistry analysis (M) and quantification of the infection rate (N) of hNPCs at 72 h after ZIKV (PRVABC59 strain) infection with or without drug treatment (n=6). Scale bars, 100 μm. p values were calculated by one-way repeated measures ANOVA with a Bonferroni test for multiple comparisons. *p<0.05, **p<0.01 and ***p<0.001. […]

Compound | total ZIKV vRNA level in supernatant from D20+4 organoids ([1]; 25 μM HH) | ZIKV infection rate in D20+4 forebrain organoids ([1]; 25 μM HH, 3 day treatment, hydrobromide) | ZIKV infection in D20+18 organoids (long-term) ([1]; HH treated, 18 days after infection, hydrobromide) | ZIKV (PRVABC59) infection of hNPCs ([2]; 25 μM HH) | ZIKV infection in D20 organoids ([1]; 15 μM AQ, D20+4, dihydrochloride dihydrate) | ZIKV (PRVABC59) infection of hNPCs ([2]; 15 μM AQ)
CN1CCC2=C[C@H](O)[C@H]3OC(=O)c4cc5c(cc4[C@H]3[C@@H]21)OCO5 [HH, hippeastrine hydrobromide] | suppresses total ZIKV vRNA level | undetectable levels; also recorded: below the detection limit | devoid of any detectable ZIKV; also recorded: suppressed any detectable ZIKV infection | effectively inhibited ZIKV infection | – | –
CCN(CC)Cc1cc(Nc2ccnc3cc(Cl)ccc23)ccc1O [AQ, amodiaquine dihydrochloride dihydrate] | – | – | – | – | suppresses ZIKV infection; also recorded: reduces ZIKV infection | effectively inhibited ZIKV infection
